This passage reports IC50 results from US20180179198A1, “TRICYCLIC MODULATORS OF TNF SIGNALING” (AbbVie Inc., priority 2015, published 2018).

Structures can show the parent of a compound that is named as a salt. Bounds are passed on as bounds.

In the test the target is TNFα trimer (Homo sapiens, UniProt P01375). In words: TNFα FP Competitive Binding Assay. As to conditions: fluorescence polarization competition; 20 nM TNFα trimer, 1 nM OregonGreen488 probe; read-out: TNF IC50 (TNFα FP binding assay IC50). The method, boiled down:
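Fluorescence polarization displacement: 20 nM TNFα trimer (60 nM protein) with 1 nM fluorescein-labelled bis-isoquinoline probe in HEPES/NaCl/EDTA/Triton X-100 buffer. 12-point 1:3 compound series, top final 338 μM (3.4% DMSO) or 100 μM (2.0% DMSO); 18-24 h at 37 °C, then 1 h rt before background-subtracted mP read; variable-slope curve fit.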
On the technique in general: Polarisation of emitted light reports the rotation of a fluorescent probe.

Sequence of TNFα trimer (P01375 77-233 limits assumed): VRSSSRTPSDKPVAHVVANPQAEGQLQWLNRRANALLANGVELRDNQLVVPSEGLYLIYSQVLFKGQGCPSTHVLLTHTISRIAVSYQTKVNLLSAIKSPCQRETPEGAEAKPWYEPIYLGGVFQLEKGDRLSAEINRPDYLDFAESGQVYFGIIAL

By IC50 is commonly meant the concentration that gives 50% inhibition. As for `CC(C)(O)c1ncc(-c2ccc3nc4n(c3n2)C(c2ccccn2)CC4)cn1` (stereo not shown) [Example 29, 2-(5-(8-(Pyridin-2-yl)-7,8-dihydro-6H-pyrrolo[2′,1′:2,3]imidazo[4,5-b]pyridin-2-yl)pyrimidin-2-yl)propan-2-ol], the IC50 lay within 1000 to 10000 nM. To `O=C1NC[C@H]2CN(c3ncc(-c4ccc5nc6n(c5n4)[C@@H](c4ccccc4)CC6)cn3)CCN12` [Example 31, (S)-7-(5-((R)-8-Phenyl-7,8-dihydro-6H-pyrrolo[2′,1′:2,3]imidazo[4,5-b]pyridin-2-yl)pyrimidin-2-yl)hexahydroimidazo[1,5-a]pyrazin-3(2H)-one] belongs below 1000 nM; to `COc1ccccc1C1COCc2nc3ccc(-c4cnc(C(C)(C)O)nc4)cn3c21` (stereo not shown) [Example 32, 2-(5-(4-(2-Methoxyphenyl)-3,4-dihydro-1H-pyrano[3′,4′:4,5]imidazo[1,2-a]pyridin-7-yl)pyrimidin-2-yl)propan-2-ol], below 1000 nM; to `OC1CCN(c2ncc(-c3ccc4nc5c(n4n3)C(c3ccccc3)CC5)cn2)CC1` (stereo not shown) [Example 33, 1-(5-(8-Phenyl-7,8-dihydro-6H-cyclopenta[4,5]imidazo[1,2-b]pyridazin-2-yl)pyrimidin-2-yl)piperidin-4-ol], below 1000 nM. Regarding `COc1ccccc1C1CCc2nc3ccc(-c4cnc(N5CCN6C(=O)NCC6C5)nc4)nn3c21` (stereo not shown) [Example 34, 7-(5-(8-(2-Methoxyphenyl)-7,8-dihydro-6H-cyclopenta[4,5]imidazo[1,2-b]pyridazin-2-yl)pyrimidin-2-yl)hexahydroimidazo[1,5-a]pyrazine-3(2H)-one], the IC50 was below 1000 nM. Next, `O=C1NCC2CN(c3ncc(-c4ccc5nc6n(c5c4)C(c4ccccc4C(F)(F)F)COC6)cn3)CCN12` (stereo not shown) [Example 35, 7-(5-(4-(2-(Trifluoromethyl)phenyl)-3,4-dihydro-H-benzo[4,5]imidazo[2,1-c][1,4]oxazin-7-yl)pyrimidin-2-yl)hexahydroimidazo[1,5-a]pyrazin-3(2H)-one]: below 1000 nM. Next, `NC1CC2(CCN(c3ncc(-c4ccc5nc6n(c5c4)[C@@H](c4ccccc4)COC6)cn3)CC2)C1` [Example 36, (S)-7-(5-(4-Phenyl-3,4-dihydro-1H-benzo[4,5]imidazo[2,1-c][1,4]oxazin-7-yl)pyrimidin-2-yl)-7-azaspiro[3.5]nonan-2-amine]: below 1000 nM. To `c1ccc([C@H]2COCc3nc4ccc(-c5cnc(N6[C@H]7CCC[C@@H]6CNCC7)nc5)cc4n32)cc1` [Example 37] belongs below 1000 nM. Take `CC(C)(O)c1ncc(-c2ccc3nc4n(c3c2)C(C2CCOCC2)CC4)cn1` (stereo not shown) [Example 38, 2-(5-(1-(Tetrahydro-2H-pyran-4-yl)-2,3-dihydro-1H-benzo[d]pyrrolo[1,2-a]imidazol-7-yl)pyrimidin-2-yl)propan-2-ol]: the half-maximal inhibitory concentration (IC50) was in the range of 10000 to 100000 nM. Next, `CC(C)(O)c1ncc(-c2ccc3nc4n(c3n2)C(C)(c2ccccc2)CC4)cn1` (stereo not shown) [Example 39, 2-(5-(8-Methyl-8-phenyl-7,8-dihydro-6H-pyrrolo[2′,1′:2,3]imidazo[4,5-b]pyridin-2-yl)pyrimidin-2-yl)propan-2-ol]: below 1000 nM; `OC[C@H]1CCCN1c1ncc(-c2ccc3nc4n(c3n2)[C@@H](c2ccccc2)CC4)cn1` [Example 40, ((R)-1-(5-((R)-8-Phenyl-7,8-dihydro-6H-pyrrolo[2′,1′:2,3]imidazo[4,5-b]pyridin-2-yl)pyrimidin-2-yl)pyrrolidin-2-yl)methanol]: 1000 to 10000 nM. Turning to `CC(=O)N1CCN(c2ncc(-c3ccc4nc5n(c4n3)[C@@H](c3ccccc3)CC5)cn2)C[C@H]1C` [Example 41, 1-((R)-2-Methyl-4-(5-((R)-8-phenyl-7,8-dihydro-6H-pyrrolo[2′,1′:2,3]imidazo[4,5-b]pyridin-2-yl)pyrimidin-2-yl)piperazin-1-yl)ethanone], the IC50 is below 1000 nM. Next, `CC(=O)N1CCN(c2ncc(-c3ccc4nc5n(c4n3)[C@@H](c3ccccc3)CC5)cn2)C[C@@H]1C` [Example 42, 1-((S)-2-Methyl-4-(5-((R)-8-phenyl-7,8-dihydro-6H-pyrrolo[2′,1′:2,3]imidazo[4,5-b]pyridin-2-yl)pyrimidin-2-yl)piperazin-1-yl)ethanone]: below 1000 nM; `C[C@@H]1CN(c2ncc(-c3ccc4nc5n(c4n3)[C@@H](c3ccccc3)CC5)cn2)CCN1C(=O)CO` [Example 43, 2-Hydroxy-1-((R)-2-methyl-4-(5-((R)-8-phenyl-7,8-dihydro-6H-pyrrolo[2′,1′:2,3]imidazo[4,5-b]pyridin-2-yl)pyrimidin-2-yl)piperazin-1-yl)ethanone]: below 1000 nM.

`CC(=O)N1CCN(c2ncc(-c3ccc4nc5n(c4n3)[C@@H](c3cccc(CO)c3)CC5)cn2)C[C@H]1C` [Example 44, 1-((R)-4-(5-((R)-8-(3-(Hydroxymethyl)phenyl)-7,8-dihydro-6H-pyrrolo[2′,1′:2,3]imidazo[4,5-b]pyridin-2-yl)pyrimidin-2-yl)-2-methylpiperazin-1-yl)ethanone]: the half-inhibitory concentration (IC50) is below 1000 nM. To `CC(C)[C@H](N)C(=O)OC1CCN(c2ncc(-c3ccc4nc5n(c4n3)[C@@H](c3ccccc3)CC5)cn2)CC1` [Example 46, (S)-1-(5-((R)-8-Phenyl-7,8-dihydro-6H-pyrrolo[2′,1′:2,3]imidazo[4,5-b]pyridin-2-yl)pyrimidin-2-yl)piperidin-4-yl 2-amino-3-methylbutanoate] belongs 1000 to 10000 nM; to `O=P(O)(O)OC1CCN(c2ncc(-c3ccc4nc5n(c4n3)[C@@H](c3ccccc3)CC5)cn2)CC1` [Example 46.1, (R)-1-(5-(8-Phenyl-7,8-dihydro-6H-pyrrolo[2′,1′:2,3]imidazo[4,5-b]pyridin-2-yl)pyrimidin-2-yl)piperidin-4-yl dihydrogen phosphate hydrochloride], 1000 to 10000 nM. To `c1ccc([C@H]2CCc3nc4ccc(-c5ccnc(OC6CCOCC6)c5)nc4n32)cc1` [Example 47, (R)-8-Phenyl-2-(2-((tetrahydro-2H-pyran-4-yl)oxy)pyridin-4-yl)-7,8-dihydro-6H-pyrrolo[2′,1′:2,3]imidazo[4,5-b]pyridine] belongs below 1000 nM; to `c1ccc([C@H]2CCc3nc4ccc(-c5ccnc(OC6CCCOC6)c5)nc4n32)cc1` (stereo partly drawn) [Example 48, (8R)-8-Phenyl-2-(2-((tetrahydro-2H-pyran-3-yl)oxy)pyridin-4-yl)-7,8-dihydro-6H-pyrrolo[2′,1′:2,3]imidazo[4,5-b]pyridine], 1000 to 10000 nM. Next, `c1ccc([C@H]2CCc3nc4ccc(-c5ccnc(O[C@H]6CCNC6)c5)nc4n32)cc1` [Example 49]: 1000 to 10000 nM; `OC1CCN(c2ncc(-c3ccc4nc5n(c4n3)C3(COC5)COc4ccccc43)cn2)CC1` (stereo not shown) [Example 50, 1-(5-(6′,8′-Dihydro-2H-spiro[benzofuran-3,9′-pyrido[3′,2′:4,5]imidazo[2,1-c][1,4]oxazin]-2′-yl)pyrimidin-2-yl)piperidin-4-ol]: below 1000 nM. Take `c1ccc2c(c1)OCC21COCc2nc3ccc(-c4cnc(N5CCOCC5)nc4)nc3n21` (stereo not shown) [Example 51, 2′-(2-Morpholinopyrimidin-5-yl)-6′,8′-dihydro-2H-spiro[benzofuran-3,9′-pyrido[3′,2′:4,5]imidazo[2,1-c][1,4]oxazine]]: the IC50 is below 1000 nM. To `OC1CCN(c2ncc(-c3ccc4nc5n(c4n3)C3(CCc4ccccc43)COC5)cn2)CC1` (stereo not shown) [Example 52] belongs below 1000 nM; to `O=c1cc(-c2ccc3nc4n(c3n2)[C@@H](c2ccccc2)CC4)ccn1CC1CCC(F)(F)CC1` [Example 53, (R)-1-((4,4-Difluorocyclohexyl)methyl)-4-(8-phenyl-7,8-dihydro-6H-pyrrolo[2′,1′:2,3]imidazo[4,5-b]pyridin-2-yl)pyridin-2(1H)-one], 1000 to 10000 nM; to `OC1CCC(Oc2cc(-c3ccc4nc5n(c4n3)C3(COC5)COc4ccccc43)ccn2)CC1` (stereo not shown) [Example 54, 4-((4-(6′,8′-dihydro-2H-spiro[benzofuran-3,9′-pyrido[3′,2′:4,5]imidazo[2,1-c][1,4]oxazin]-2′-yl)pyridin-2-yl)oxy)cyclohexanol], below 1000 nM. Next, `OC1CCN(c2ncc(-c3nc4c(cc3F)nc3n4[C@@H](c4ccccc4)CC3)cn2)CC1` [Example 55, (R)-1-(5-(3-fluoro-8-phenyl-7,8-dihydro-6H-pyrrolo[2′,1′:2,3]imidazo[4,5-b]pyridin-2-yl)pyrimidin-2-yl)piperidin-4-ol]: below 1000 nM; `c1ccc(C2OCCc3nc4ccc(-c5cnc(N6CCOCC6)nc5)nn4c32)cc1` (stereo not shown) [Example 56, 2-(2-morpholinopyrimidin-5-yl)-9-phenyl-7,9-dihydro-6H-pyrano[4′,3′:4,5]imidazo[1,2-b]pyridazine]: 1000 to 10000 nM. Next, `COc1ccccc1C1CCOc2nc3ccc(-c4ccnc(O[C@H]5CC[C@H](O)CC5)c4)cn3c21` (stereo partly drawn) [Example 57, trans-4-((4-(4-(2-Methoxyphenyl)-3,4-dihydro-2H-pyrano[2′,3′:4,5]imidazo[1,2-a]pyridin-7-yl)pyridin-2-yl)oxy)cyclohexanol]: below 1000 nM; `c1ccc2c(c1)OCCC21COCc2nc3ccc(-c4cnc(N5CCNCC5)nc4)nc3n21` (stereo not shown) [Example 59, 2′-(2-(Piperazin-1-yl)pyrimidin-5-yl)-6′H,8′H-spiro[chromane-4,9′-pyrido[3′,2′:4,5]imidazo[2,1-c][1,4]oxazine]]: 1000 to 10000 nM; `c1ccc2c(c1)OCCC21COCc2nc3ccc(-c4cnc(NC5CCOC5)nc4)nc3n21` (stereo not shown) [Example 60, 5-(6′H,8′H-Spiro[chromane-4,9′-pyrido[3′,2′:4,5]imidazo[2,1-c][1,4]oxazin]-2′-yl)-N-(tetrahydrofuran-3-yl)pyrimidin-2-amine]: 1000 to 10000 nM. `c1ccc([C@H]2CCc3nc4ccc(-c5ccnc(OCC6CCOCC6)c5)nc4n32)cc1` [Example 61, (R)-8-Phenyl-2-(2-((tetrahydro-2H-pyran-4-yl)methoxy)pyridin-4-yl)-7,8-dihydro-6H-pyrrolo[2′,1′:2,3]imidazo[4,5-b]pyridine]: the IC50 was in the range of 1000 to 10000 nM.
